Reference: patent US20140005103A1, “SULFONAMIDE DERIVATIVES AND METHODS OF USE THEREOF FOR IMPROVING THE PHARMACOKINETICS OF A DRUG” (Merck, Sharp & Dohme Corp., priority 2012, published 2014)

Assays:
CYP2C9 = molecular target: T1, CYP2C9 (Homo sapiens, UniProt P11712); test: Cocktail CYP assay, diclofenac 4'-hydroxylation; type: in vitro ADME; conditions: human liver microsomes, 5 μM diclofenac; test concentrations up to 10 μM
T1 construct: 0.1 mg/mL protein human liver microsomes (BD Gentest); tissue BD Gentest; host or cells: human liver microsomes
T1 sequence (P11712 whole entry): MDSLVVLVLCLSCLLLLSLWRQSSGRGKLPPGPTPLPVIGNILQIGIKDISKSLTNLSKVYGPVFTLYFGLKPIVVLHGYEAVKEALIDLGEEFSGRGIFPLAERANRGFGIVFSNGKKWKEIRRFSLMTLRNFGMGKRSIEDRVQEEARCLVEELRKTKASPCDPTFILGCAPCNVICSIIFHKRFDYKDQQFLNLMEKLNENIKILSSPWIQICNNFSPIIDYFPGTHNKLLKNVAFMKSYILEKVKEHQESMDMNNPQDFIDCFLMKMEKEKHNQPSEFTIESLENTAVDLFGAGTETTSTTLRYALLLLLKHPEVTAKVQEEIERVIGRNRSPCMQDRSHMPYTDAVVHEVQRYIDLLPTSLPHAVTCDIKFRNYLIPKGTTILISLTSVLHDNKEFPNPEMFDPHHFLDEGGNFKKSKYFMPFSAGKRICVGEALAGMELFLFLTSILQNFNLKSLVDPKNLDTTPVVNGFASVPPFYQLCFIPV
Description: (§1) Determination of IC50 in a Cocktail Assay for CYPs 1A2, 2C9, 2C19, 2D6 and 3A4
(§2) This assay was performed in a standard 96-well plate design. IC50 values were calculated from the percent inhibition observed for each test compound at 6 concentrations (for example, 0.0032, 0.016, 0.08, 0.4, 2 and 10 μM). The incubation substrate mix contains 10 μM phenacetin (1A2), 5 μM diclofenac (2C9), 30 μM mephenyloin (2C19), 5 μM dextromethorphan (2D6) and 2 μM midazolam (3A4), 0.1 mg/mL protein human liver microsomes (BD Gentest), 1 mM NAPDH, 3.3 mM MgCl2 and 100 mM potassium phosphate buffer (pH 7.4). The production of the metabolite of each probe substrate was determined after incubation for 10 min at 37° C. Quantitation of the metabolite peak area ratio against an internal standard (tolbutamide) was determined by LC/MS/MS analysis following acetonitrile treatment of the incubations.
(§3) Samples were analyzed in the MRM mode with a SCIEX API-4000 mass spectrometer (Applied Biosystems, Foster City, Calif.), with a Shimadzu LC-20 AD pump (Shimadzu corporation, Kyoto, JP) and a CTC PAL autosampler (Agilent Technologies, Switzerland). A Phenomenex, Luna, […], 100 A, 2.00×30 mm HPLC column was used for the separation. The mobile phases were: (A) 0.1% formic acid in water and (B) 0.1% formic acid in acetonitrile. The binary gradient was as follows.
(§4) The peak area ratio of the analyte to the internal standard was used to quantify the metabolite. The values of peak area ratios in the presence of test compound were compared to those of maximum or minimum controls and were expressed as % inhibition by interpolating between the maximum and minimum peak area ratios. Incubations with no inhibitor were defined as the maxima.
(§5) The following equation was used to calculate the % inhibition:
(§6) [1−[(X−Low control)/(High control−Low control)]]*100
(§7) For the IC50 calculation, SigmaPlot was used to plot the mean % inhibition versus the test compound concentrations and for non-linear regression analysis of the data. Depending on the range of data points defining the inhibition curve, the data may have been fit to the 4-parameter logistic equation.

CYP2C19 = molecular target: T2, CYP2C19 (Homo sapiens, UniProt P33261); test: Cocktail CYP assay, mephenytoin 4'-hydroxylation; type: in vitro ADME; conditions: human liver microsomes, 30 μM mephenytoin; test concentrations up to 10 μM
T2 construct: 0.1 mg/mL protein human liver microsomes (BD Gentest); tissue BD Gentest; host or cells: human liver microsomes
T2 sequence (P33261 whole entry): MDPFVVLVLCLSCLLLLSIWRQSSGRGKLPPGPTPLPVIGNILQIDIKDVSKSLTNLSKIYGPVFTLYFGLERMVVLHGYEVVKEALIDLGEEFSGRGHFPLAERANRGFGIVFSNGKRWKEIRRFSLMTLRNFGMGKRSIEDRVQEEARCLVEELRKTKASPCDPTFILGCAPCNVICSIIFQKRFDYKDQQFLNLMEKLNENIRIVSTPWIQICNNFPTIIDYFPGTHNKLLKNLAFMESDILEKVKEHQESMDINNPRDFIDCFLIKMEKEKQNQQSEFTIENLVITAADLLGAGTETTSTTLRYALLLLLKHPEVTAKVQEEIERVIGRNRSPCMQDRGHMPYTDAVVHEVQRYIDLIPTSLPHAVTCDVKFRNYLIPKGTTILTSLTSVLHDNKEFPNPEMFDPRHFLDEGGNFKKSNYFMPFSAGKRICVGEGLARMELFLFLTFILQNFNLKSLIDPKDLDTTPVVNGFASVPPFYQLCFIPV
Description: as §1, §2, §3, §4, §5, §6, §7

human CYP11B1 = molecular target: T3, human CYP11B1 (Homo sapiens, UniProt P15538); test: IC50 vs CYP11B1 by cortisol synthesis in V79 cells; type: cell-based; conditions: V79 cells expressing human CYP11B1, 1500 nM RSS, cortisol HTRF; test concentrations 0.5-10000 nM
T3 construct: expressed in transfected cells
T3 sequence (P15538 25-503): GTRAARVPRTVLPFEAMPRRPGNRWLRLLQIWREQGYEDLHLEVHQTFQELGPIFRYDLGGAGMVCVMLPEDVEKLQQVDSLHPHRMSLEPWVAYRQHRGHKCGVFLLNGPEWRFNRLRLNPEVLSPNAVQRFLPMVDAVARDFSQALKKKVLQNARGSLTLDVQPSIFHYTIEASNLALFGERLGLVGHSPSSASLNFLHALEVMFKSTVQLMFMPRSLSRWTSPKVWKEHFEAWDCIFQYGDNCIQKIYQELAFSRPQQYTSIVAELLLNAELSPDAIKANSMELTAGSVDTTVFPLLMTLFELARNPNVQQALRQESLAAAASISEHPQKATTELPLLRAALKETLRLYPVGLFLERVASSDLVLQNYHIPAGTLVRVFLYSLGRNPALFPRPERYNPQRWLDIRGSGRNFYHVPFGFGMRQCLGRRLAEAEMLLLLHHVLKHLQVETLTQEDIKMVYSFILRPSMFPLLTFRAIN
Description: (§8) Determination of IC50 vs CYP11B1/CYP11B2 by Measurement of Cortisol/Aldosterone Synthesis
(§9) This assay was performed in a standard 384-well plate design using cultured V79 cells stably expressing human CYP11B1 or human CYP11B2. Test compounds at 10 concentrations (for example, 10000, 3333.3, 1111.1, 370.4, 123.5, 41.2, 13.7, 4.6, 1.5 and 0.5 nM) were added in 384-well plate after the cell-seeding procedure. The incubation substrate contains 1500 nM RSS for CYP11B1 assay/750 nM DOC for CYP11B2 assay. The
(§10) Cortisol/Aldosterone production of cell culture supernatant was determined by Cortisol/Aldosterone HTRF kit after for about 15 hours incubation at RT (protect from light). IC50 values were calculated from the percent inhibition observed for each test compound at 10 concentrations.
(§11) The assay plate was read using Envision (Perkin Elmer, Waltham, Mass.) at 665 nm and 590 nm (using Filter Barcode of 217#, 205#; Mirror Barcode of 446#).
(§12) Data are analyzed using Assay Data Analyzer. All ratio data (665 nm/590 nm) are back calculated according to the standard curve, resulting in Cortisol/Aldosterone concentrations. IC50 values are reported as the Inflection Point (IP) of a four parameter fit of the titration data.
as §5
(§13) % Activity=100×{1−(Sample_back calculated Cortisol/Aldosterone concentration−LC_back calculated Cortisol/Aldosterone concentration)/(HC_back calculated Cortisol/Aldosterone concentration−LC_back calculated Cortisol/Aldosterone concentration)}

human CYP11B2 = molecular target: T4, human CYP11B2 (Homo sapiens, UniProt P19099); test: IC50 vs CYP11B2 by aldosterone synthesis in V79 cells; type: cell-based; conditions: V79 cells expressing human CYP11B2, 750 nM DOC, aldosterone HTRF; test concentrations 0.5-10000 nM
T4 construct: expressed in transfected cells
T4 sequence (P19099 25-503): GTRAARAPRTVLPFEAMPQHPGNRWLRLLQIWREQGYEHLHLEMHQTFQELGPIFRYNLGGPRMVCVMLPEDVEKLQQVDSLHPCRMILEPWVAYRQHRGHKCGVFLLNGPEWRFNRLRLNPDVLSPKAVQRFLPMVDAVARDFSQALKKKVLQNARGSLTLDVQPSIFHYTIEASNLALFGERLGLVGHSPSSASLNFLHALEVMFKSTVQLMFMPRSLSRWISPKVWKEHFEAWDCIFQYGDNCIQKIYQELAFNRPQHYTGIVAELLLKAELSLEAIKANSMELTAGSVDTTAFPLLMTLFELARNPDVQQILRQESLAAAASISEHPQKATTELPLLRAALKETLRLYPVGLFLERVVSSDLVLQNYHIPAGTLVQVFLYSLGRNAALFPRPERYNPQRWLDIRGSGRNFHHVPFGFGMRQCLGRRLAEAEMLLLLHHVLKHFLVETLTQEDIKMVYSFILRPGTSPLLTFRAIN
Description: as §8, §9, §10, §11, §12, §5, §13

Row | Structure (SMILES) | IC50 (CYP2C9) [µM] | IC50 (CYP2C19) [µM] | IC50 (human CYP11B1) [µM] | IC50 (human CYP11B2) [µM]
1 | Cc1ccc(C2(n3cncc3CN3CCN(S(=O)(=O)c4cnc(N5CCN(C)CC5)s4)CC3)CC2)nc1 [Compound 31] | > 10 | > 10 | > 10 | > 10
2 | C[C@H](c1ccc(F)cc1)n1cncc1CN1CCN(S(=O)(=O)c2cnc(N3CCNCC3)s2)CC1 [Compound 1] | 2.3 | 2.53 | 1.77 | 1.72
3 | C[C@H](c1ccc(F)cc1)n1cncc1CN1CCN(S(=O)(=O)c2cnc(N3CC[C@@H]4NCCO[C@H]4C3)s2)CC1 [Compound 15] | 2.46 | > 10 | 1.71 | 3.62
4 | C[C@H](c1ccc(F)cc1)n1cncc1CN1CCN(S(=O)(=O)c2cnc(N3CCN4C[C@H](O)C[C@H]4C3)s2)CC1 [Compound 5] | 4.46 | 3.85 | 2 | 4.77
5 | C[C@H](c1ccc(F)cc1)n1cncc1CN1CCN(S(=O)(=O)c2cnc(N3CCC(S(C)(=O)=O)C3)s2)CC1 (some centres unmarked) [Compound 8] | 3.5 | > 10 | > 10 | 4
6 | CC(c1cncn1[C@H](C)c1ccc(F)cc1)N1CCN(S(=O)(=O)c2cnc(N3CCN4C[C@H](O)C[C@H]4C3)s2)CC1 (some centres unmarked) [Compound 37] | 6.1 | > 10 | 3.81 | 0.193
7 | CN1CCN(c2ncc(S(=O)(=O)N3CCN(Cc4cncn4CCOc4ccc(F)cn4)CC3)s2)CC1 [Compound 33] | > 10 | 7.51 | 4.75 | 1.61
8 | C[C@H](c1ccc(F)cc1)n1cncc1CN1CCN(S(=O)(=O)c2cnc(N3CC(=O)N4C[C@H](O)C[C@H]4C3)s2)CC1 [Compound 16] | 9.12 | 8.04 | > 10 | 4.6
9 | C[C@H](c1ccc(F)cc1)n1cncc1CN1CCN(S(=O)(=O)c2cnc(N3CCN(C)CC3)s2)CC1 [Compound 2] | 3.22 | 1.83 | 0.215 | 0.077
10 | C[C@H](c1ccc(F)cc1)n1cncc1CN1CCN(S(=O)(=O)c2cncc(N3CCNCC3)c2)CC1 [Compound 29] | > 10 | > 10 | 1.44 | 4.37
11 | C[C@H](c1ccc(F)cc1)n1cncc1CN1CCN(S(=O)(=O)c2cnc(N3CCN4C[C@H](O)CC4(C)C3)s2)CC1 (some centres unmarked) [Compound 24] | 1.35 | > 10 | 4.27 | > 10
12 | C[C@H](c1ccc(F)cc1)n1cncc1CN1CCN(S(=O)(=O)c2cnc(N3CC[C@@H](N)[C@H](F)C3)s2)CC1 [Compound 11] | 2.15 | 8.02 | 1.1 | 3.39

The remaining lines, values ahead:

Row | IC50 (CYP2C9) [µM] | IC50 (CYP2C19) [µM] | IC50 (human CYP11B1) [µM] | IC50 (human CYP11B2) [µM] | Structure (SMILES)
13 | 4.27 | 7.21 | 3.04 | 9.22 | C[C@H](c1ccc(F)cc1)n1cncc1CN1CCN(S(=O)(=O)c2cnc(N3CCN4C(=O)OC[C@H]4C3)s2)CC1 [Compound 26]
14 | 2.45 | 2.25 | > 10 | 9.35 | C[C@H](c1ccc(F)cc1)n1cncc1CN1CCN(S(=O)(=O)c2cnc(NCC(F)CN)s2)CC1 (some centres unmarked) [Compound 17]
15 | 2.3 | 2.16 | 2.59 | 4.58 | C[C@H](c1ccc(F)cc1)n1cncc1CN1CCN(S(=O)(=O)c2cnc(N3CCN4C[C@H](O)C[C@H]4C3=O)s2)CC1 [Compound 18]
16 | 0.357 | 3.05 | 1.15 | 3.9 | C[C@H](c1ccc(F)cc1)n1cncc1C1COCC2CN(S(=O)(=O)c3cnc(Nc4ccccn4)s3)CCN21 (some centres unmarked) [Compound 40]
17 | 4.7 | 2.65 | 2.48 | 2.47 | C[C@H](c1ccc(F)cc1)n1cncc1C1C(=O)OCC2CN(S(=O)(=O)c3cnc(Nc4ccc(C(F)(F)F)cn4)s3)CCN21 (some centres unmarked) [Compound 39]
